Measurements from patent US8415351B2 (priority 2007, dated 2013).

What was measured:
[1] = biological target: T1, HCV polymerase 1A (Δ21 NS5B, H77) (Hepatitis C virus genotype 1a, UniProt P27958); assay: biochemical; settings: IC50 1a
T1 construct: 20 to 50 nM Δ21 NS5B
Procedure, shortened: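 Incorporation of 1 μM ^3H-UTP, with 20 μM each of CTP and ATP on 5 nM template RNA, ran 2–4 h at room temperature. Spermine-precipitated product was filtered and scintillation-counted. IC50 came from tight-binding non-linear regression of cpm against inhibitor concentration.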

[2] = system: genotype 1b-Con1 subgenomic replicon cell line; assay: microbe, parasite or virus in culture; format: cell-based, HCV; settings: Hepatitis C virus, read-out: EC50 1b
[3] = system: genotype 1a-H77 subgenomic replicon cell line; assay: microbe, parasite or virus in culture; format: cell-based, HCV; settings: Hepatitis C virus, read-out: EC50 1a
[4] = biological target: T2, HCV polymerase 1B (Δ21 NS5B, BK) (Hepatitis C virus genotype 1b, UniProt P26663); assay: biochemical
T2 construct: 20 to 50 nM Δ21 NS5B
T2 sequence (P26663 2420-2989, stated change not applied): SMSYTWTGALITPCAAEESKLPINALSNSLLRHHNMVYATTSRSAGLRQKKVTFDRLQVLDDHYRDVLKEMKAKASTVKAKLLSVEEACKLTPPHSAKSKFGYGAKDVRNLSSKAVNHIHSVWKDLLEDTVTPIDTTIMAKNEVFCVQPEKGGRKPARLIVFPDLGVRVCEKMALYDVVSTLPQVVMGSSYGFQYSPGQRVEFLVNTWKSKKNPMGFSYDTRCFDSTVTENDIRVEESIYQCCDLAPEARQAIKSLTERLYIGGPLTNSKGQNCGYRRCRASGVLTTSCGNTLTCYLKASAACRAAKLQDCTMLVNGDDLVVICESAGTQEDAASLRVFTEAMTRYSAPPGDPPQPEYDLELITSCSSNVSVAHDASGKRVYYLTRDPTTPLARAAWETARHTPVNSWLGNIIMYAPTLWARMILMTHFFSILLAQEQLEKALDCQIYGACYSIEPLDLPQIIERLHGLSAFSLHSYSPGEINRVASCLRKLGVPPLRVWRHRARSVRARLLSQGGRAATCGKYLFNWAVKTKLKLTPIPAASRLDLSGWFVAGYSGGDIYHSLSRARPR
Procedure, shortened: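 Δ21 NS5B (genotype 1b, BK […]) preincubated 15 min RT with inhibitor, 2 mM MnCl2, pH 7.4, 60–125 μM GTP; started with 20 μM CTP/ATP, 1 μM 3H-UTP, 5 nM template RNA, run 2–4 h RT. Spermine-precipitated RNA filter-captured, scintillation counted; IC50 from tight-binding (Morrison) fit.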

T1 sequence (P27958 2421-2990, stated change not applied): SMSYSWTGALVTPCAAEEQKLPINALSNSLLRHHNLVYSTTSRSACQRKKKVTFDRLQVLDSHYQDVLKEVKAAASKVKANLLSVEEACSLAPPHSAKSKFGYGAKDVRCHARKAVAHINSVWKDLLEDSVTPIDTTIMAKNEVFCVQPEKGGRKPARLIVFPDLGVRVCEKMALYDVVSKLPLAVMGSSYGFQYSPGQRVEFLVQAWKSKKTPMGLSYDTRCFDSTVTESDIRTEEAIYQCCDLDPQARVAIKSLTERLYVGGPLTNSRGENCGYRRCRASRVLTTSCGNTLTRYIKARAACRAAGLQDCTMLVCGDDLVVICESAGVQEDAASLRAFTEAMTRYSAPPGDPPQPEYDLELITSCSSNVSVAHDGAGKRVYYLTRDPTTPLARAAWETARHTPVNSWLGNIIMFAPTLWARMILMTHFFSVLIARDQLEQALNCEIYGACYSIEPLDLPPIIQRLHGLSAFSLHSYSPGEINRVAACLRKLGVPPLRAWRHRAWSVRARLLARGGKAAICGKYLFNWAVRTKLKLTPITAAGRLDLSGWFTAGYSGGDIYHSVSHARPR

Compound	IC50 [1]	EC50 [2]	EC50 [3]	IC50 [4]
COc1c(C(=O)Nc2ccccc2)cc(N2CCC(=O)NC2=O)cc1C(C)(C)C [IA-L3-1.24, 3-tert-butyl-5-(2,4-dioxotetrahydropyrimidin-1(2H)-yl)-2-methoxy-N-phenylbenzamide]	100 to 1000 nM	> 1000 nM	> 1000 nM	100 to 1000 nM
CC(C)(C)c1cc(-c2ccc3c(c2)CC/C3=N\NS(C)(=O)=O)cc(-n2ccc(=O)[nH]c2=O)c1 [IB-L0-2.7, (E)-N′-(5-(3-tert-butyl-5-(2,4-dioxo-3,4-dihydropyrimidin-1(2H)-yl)phenyl)-2,3-dihydro-1H-inden-1-ylidene)methanesulfonohydrazide]	10 to 100 nM	10 to 100 nM	100 to 1000 nM	10 to 100 nM
COc1c(CC(=O)c2ccc(NS(C)(=O)=O)cc2)cc(N2CCC(=O)NC2=O)cc1C(C)(C)C [IA-L12-1.1, N-(4-(2-(3-tert-butyl-5-(2,4-dioxotetrahydropyrimidin-1(2H)-yl)-2-methoxyphenyl)acetyl)phenyl)methanesulfonamide]	10 to 100 nM	10 to 100 nM	100 to 1000 nM	10 to 100 nM
COc1c(-c2ccc(/C=N/NS(C)(=O)=O)c(F)c2)cc(-n2ccc(=O)[nH]c2=O)cc1C(C)(C)C [IB-L0-1.3, (E)-N′-((3′-tert-butyl-5′-(2,4-dioxo-3,4-dihydropyrimidin-1(2H)-yl)-3-fluoro-2′-methoxybiphenyl-4-yl)methylene)methanesulfonohydrazide]	10 to 100 nM	10 to 100 nM	100 to 1000 nM	10 to 100 nM
CC(C)(C)c1cc(N2CCC(=O)NC2=O)cc(C(=O)Nc2ccc(S(C)(=O)=O)cc2)c1O [IA-L3-1.21, 3-tert-butyl-5-(2,4-dioxotetrahydropyrimidin-1(2H)-yl)-2-hydroxy-N-(4-(methylsulfonyl)phenyl)benzamide]	> 1000 nM	> 1000 nM	> 1000 nM	100 to 1000 nM
COc1c(C(=O)Nc2ccc(OCC(N)=O)cc2)cc(N2CCC(=O)NC2=O)cc1C(C)(C)C [IA-L3-1.39, N-(4-(2-amino-2-oxoethoxy)phenyl)-3-tert-butyl-5-(2,4-dioxotetrahydropyrimidin-1(2H)-yl)-2-methoxybenzamide]	> 1000 nM	> 1000 nM	> 1000 nM	100 to 1000 nM
COc1c(-c2ccc(/C=N/NS(C)(=O)=O)c(F)c2)cc(N2CCC(=O)NC2=O)cc1C(C)(C)C [IA-L0-1.4, (E)-N′-((3′-tert-butyl-5′-(2,4-dioxotetrahydropyrimidin-1(2H)-yl)-3-fluoro-2′-methoxybiphenyl-4-yl)methylene)methanesulfonohydrazide]	10 to 100 nM	10 to 100 nM	100 to 1000 nM	10 to 100 nM
COc1c(-c2ccc3c(c2)CC[C@H]3CNS(C)(=O)=O)cc(-n2ccc(=O)[nH]c2=O)cc1C(C)(C)C (single isomer, unassigned) [IB-L0-2.15]	< 10 nM	10 to 100 nM	100 to 1000 nM	10 to 100 nM
COc1ccc(-c2cc(N3CCC(=O)NC3=O)cc(C(C)(C)C)c2OC)cc1/C=N/NS(C)(=O)=O [IA-L0-1.5, (E)-N′-((3′-tert-butyl-5′-(2,4-dioxotetrahydropyrimidin-1(2H)-yl)-2′,4-dimethoxy-biphenyl-3-yl)methylene)methanesulfonohydrazide]	100 to 1000 nM	> 1000 nM	> 1000 nM	100 to 1000 nM
COc1c(C#Cc2ccc(NS(C)(=O)=O)c(F)c2)cc(N2CCC(=O)NC2=O)cc1C(C)(C)C [IA-L2-1.13, N-(4-((3-tert-butyl-5-(2,4-dioxotetrahydropyrimidin-1(2H)-yl)-2-methoxyphenyl)ethynyl)-2-fluorophenyl)methanesulfonamide]	< 10 nM	10 to 100 nM	100 to 1000 nM	< 10 nM
COc1c(C(=O)Nc2ccc(OCC#N)cc2)cc(N2CCC(=O)NC2=O)cc1C(C)(C)C [IA-L3-1.38, 3-tert-butyl-N-(4-(cyanomethoxy)phenyl)-5-(2,4-dioxotetrahydropyrimidin-1(2H)-yl)-2-methoxybenzamide]	> 1000 nM	> 1000 nM	> 1000 nM	100 to 1000 nM
COc1c(-c2ccc3c(c2)CC=C3CNS(C)(=O)=O)cc(-n2ccc(=O)[nH]c2=O)cc1C(C)(C)C [IB-L0-2.13, N-((6-(3-tert-butyl-5-(2,4-dioxo-3,4-dihydropyrimidin-1(2H)-yl)-2-methoxyphenyl)-1H-inden-3-yl)methyl)methanesulfonamide]	< 10 nM	< 10 nM	10 to 100 nM	10 to 100 nM
CNS(=O)(=O)Cc1ccc(NC(=O)c2cc(N3CCC(=O)NC3=O)cc(C(C)(C)C)c2O)cc1 [IA-L3-1.16, 3-tert-butyl-5-(2,4-dioxotetrahydropyrimidin-1(2H)-yl)-2-hydroxy-N-(4-(N-methylsulfamoylmethyl)phenyl)benzamide]	> 1000 nM	> 1000 nM	> 1000 nM	10 to 100 nM
COC(=O)NN=C1CCc2cc(-c3cc(-n4ccc(=O)[nH]c4=O)cc(C(C)(C)C)c3OC)ccc21 [IB-L0-2.24, methyl 2-(5-(3-tert-butyl-5-(2,4-dioxo-3,4-dihydropyrimidin-1(2H)-yl)-2-methoxyphenyl)-2,3-dihydro-1H-inden-1-ylidene)hydrazinecarboxylate]	10 to 100 nM	10 to 100 nM	10 to 100 nM	10 to 100 nM
COc1c(C(=O)Nc2ccc(CC(=O)O)cc2)cc(N2CCC(=O)NC2=O)cc1C(C)(C)C [IA-L3-1.30, 2-(4-(3-tert-butyl-5-(2,4-dioxotetrahydropyrimidin-1(2H)-yl)-2-methoxybenzamido)phenyl)-acetic acid]	> 1000 nM	> 1000 nM	> 1000 nM	100 to 1000 nM
COc1cc(NS(C)(=O)=O)ccc1C(=O)Nc1cc(N2CCC(=O)NC2=O)cc(C(C)(C)C)c1OC [IA-L4-1.11, N-(3-tert-butyl-5-(2,4-dioxotetrahydropyrimidin-1(2H)-yl)-2-methoxyphenyl)-2-methoxy-4-(methylsulfonamido)benzamide]	< 10 nM	10 to 100 nM	100 to 1000 nM	10 to 100 nM
COc1c(C(=O)Nc2ccc(N(C)S(C)(=O)=O)cc2)cc(N2CCC(=O)NC2=O)cc1C(C)(C)C [IA-L3-1.62, 3-tert-butyl-5-(2,4-dioxotetrahydropyrimidin-1(2H)-yl)-2-methoxy-N-(4-(N-methylmethylsulfonamido)phenyl)benzamide]	100 to 1000 nM	100 to 1000 nM	> 1000 nM	100 to 1000 nM
COc1c(-c2ccoc2)cc(-n2ccc(=O)[nH]c2=O)cc1-c1ccc2c(c1)CC=C2CNS(C)(=O)=O [IB-L0-2.67, N-((6-(5-(2,4-dioxo-3,4-dihydropyrimidin-1(2H)-yl)-3-(furan-3-yl)-2-methoxyphenyl)-1H-inden-3-yl)methyl)methanesulfonamide]	10 to 100 nM	10 to 100 nM	100 to 1000 nM	10 to 100 nM
COc1cc(NS(C)(=O)=O)ccc1C(=O)Nc1cc(-n2ccc(=O)[nH]c2=O)cc(C(C)(C)C)c1OC [IB-L4-1.1, N-(3-tert-butyl-5-(2,4-dioxo-3,4-dihydropyrimidin-1(2H)-yl)-2-methoxyphenyl)-2-methoxy-4-(methylsulfonamido)benzamide]	< 10 nM	10 to 100 nM	100 to 1000 nM	10 to 100 nM
COCCS(=O)(=O)Nc1ccc(NC(=O)c2cc(N3CCC(=O)NC3=O)cc(C(C)(C)C)c2O)cc1 [IA-L3-1.8, 3-tert-butyl-5-(2,4-dioxotetrahydropyrimidin-1(2H)-yl)-2-hydroxy-N-(4-(2-methoxyethylsulfonamido)phenyl)benzamide]	10 to 100 nM	100 to 1000 nM	> 1000 nM	10 to 100 nM
COc1c(C#Cc2cc(F)c(NS(C)(=O)=O)cc2C)cc(N2CCC(=O)NC2=O)cc1C(C)(C)C [IA-L2-1.20, N-(4-((3-tert-butyl-5-(2,4-dioxotetrahydropyrimidin-1(2H)-yl)-2-methoxyphenyl)ethynyl)-2-fluoro-5-methylphenyl)methanesulfonamide]	< 10 nM	< 10 nM	10 to 100 nM	10 to 100 nM
COc1cc(NS(C)(=O)=O)ccc1NC(=O)c1cc(N2CCC(=O)NC2=O)cc(C(C)(C)C)c1OC [IA-L3-1.85, 3-tert-butyl-5-(2,4-dioxotetrahydropyrimidin-1(2H)-yl)-2-methoxy-N-(2-methoxy-4-(methylsulfonamido)phenyl)benzamide]	100 to 1000 nM	100 to 1000 nM	100 to 1000 nM	100 to 1000 nM
COc1c(-c2ncc(-c3cccc(NS(C)(=O)=O)c3)o2)cc(N2CCC(=O)NC2=O)cc1C(C)(C)C [IA-L0-1.9, N-(3-(2-(3-tert-butyl-5-(2,4-dioxotetrahydropyrimidin-1(2H)-yl)-2-methoxyphenyl)oxazol-5-yl)phenyl)methanesulfonamide]	10 to 100 nM	100 to 1000 nM	> 1000 nM	100 to 1000 nM
CC(C)(C)c1cc(N2CCC(=O)NC2=O)cc(C(=O)Nc2cc(CNS(C)(=O)=O)cs2)c1O [IA-L3-1.91, 3-tert-butyl-5-(2,4-dioxotetrahydropyrimidin-1(2H)-yl)-2-hydroxy-N-(4-(methylsulfonamidomethyl)thiophen-2-yl)benzamide]	10 to 100 nM	100 to 1000 nM	100 to 1000 nM	10 to 100 nM
